The values that follow come from patent publication US8741897B2, “Glucocorticoid mimetics, methods of making them, pharmaceutical compositions and uses thereof” (Boehringer Ingelheim Pharmaceuticals Inc., priority 2003, dated 2014).

For experiment [1], the target named is T1, human glucocorticoid receptor (GR) complex (Homo sapiens, UniProt P04150).
T1 construct: made in house; host or cells: insect expression system (baculovirus lysate)
T1 sequence (P04150 1-777): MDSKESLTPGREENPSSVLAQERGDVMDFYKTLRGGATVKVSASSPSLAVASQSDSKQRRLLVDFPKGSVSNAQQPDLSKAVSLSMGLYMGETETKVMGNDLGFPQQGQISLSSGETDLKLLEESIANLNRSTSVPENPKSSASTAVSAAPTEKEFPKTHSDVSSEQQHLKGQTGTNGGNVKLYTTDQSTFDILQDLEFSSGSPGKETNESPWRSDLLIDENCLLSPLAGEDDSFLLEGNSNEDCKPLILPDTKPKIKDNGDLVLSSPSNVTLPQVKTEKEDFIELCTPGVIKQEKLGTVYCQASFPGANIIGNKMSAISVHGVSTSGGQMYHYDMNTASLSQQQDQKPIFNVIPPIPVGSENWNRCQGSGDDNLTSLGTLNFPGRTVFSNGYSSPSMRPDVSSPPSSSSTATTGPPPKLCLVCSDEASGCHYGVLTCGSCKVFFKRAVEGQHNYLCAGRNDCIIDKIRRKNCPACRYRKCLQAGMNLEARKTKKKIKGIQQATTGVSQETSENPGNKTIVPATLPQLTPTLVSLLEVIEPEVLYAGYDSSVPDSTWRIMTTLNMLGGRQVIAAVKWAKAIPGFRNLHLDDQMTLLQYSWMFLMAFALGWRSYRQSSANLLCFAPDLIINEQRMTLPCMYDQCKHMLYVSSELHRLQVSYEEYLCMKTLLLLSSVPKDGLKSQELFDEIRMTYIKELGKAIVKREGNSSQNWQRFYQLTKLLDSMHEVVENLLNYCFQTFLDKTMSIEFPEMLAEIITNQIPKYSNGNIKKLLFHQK
Briefly: Glucocorticoid receptor competitive binding assay (fluorescence polarization, TAMRA-labeled dexamethasone probe). The conditions noted are these: compounds of Formula (IA). Summed up:
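Fluorescence-polarization competition against 15 nM TAMRA-dexamethasone (stock added to the mix) for human GR complex from baculovirus lysate diluted 1:170. Buffer: 10 mM TES, 50 mM KCl, 20 mM Na2MoO4, 1.5 mM EDTA, 0.04% CHAPS, 10% glycerol, 1 mM DTT, pH 7.4. IC50 from 4-parameter logistic fit.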

The test system of experiment [2] is glucocorticoid receptor function. Briefly: one or more of the above assays (GR binding and glucocorticoid receptor cell assays: aromatase, IL-6, TAT, MMTV-Luc, IL-8, ICAM-Luc). It is filed as cell-based. Conditions: assay not specified per compound.

For the compound `COc1ccc2[nH]c(CC(O)(CC(C)(C)c3cc(F)ccc3C)C(F)(F)F)cc2n1` (centres unmarked) [1,1,1-Trifluoro-4-(5-fluoro-2-methylphenyl)-2-(5-methoxy-1H-pyrrolo[3,2-b]pyridin-2-ylmethyl)-4-methylpentan-2-ol], in experiment [1], the “activity in the GR binding assay” value was “potent activity”. Besides, in experiment [2], the “activity as agonists of the glucocorticoid receptor function in one or more of the above assays” value (“activity as agonists” for short) is “potent agonists”.
Turning to `CC(C)(CC(O)(Cc1ccnc2ccccc12)C(F)(F)F)c1cc(C#N)cc2c1OCC2` (centres unmarked) [7-(4,4,4-Trifluoro-3-hydroxy-1,1-dimethyl-3-quinolin-4-ylmethylbutyl)-2,3-dihydrobenzofuran-5-carbonitrile], the “activity in the GR binding assay” value in experiment [1] is given as “potent activity”. Besides, in experiment [2], the “activity as agonists” value is recorded as “potent agonists”.
The like results for `CC(C)(CC(O)(Cc1cc(Cl)nc2ccc(Cl)cc12)C(F)(F)F)c1cc(F)ccc1O` (centres unmarked) [2-[3-(2,6-Dichloroquinolin-4-ylmethyl)-4,4,4-trifluoro-3-hydroxy-1,1-dimethylbutyl]-4-fluorophenol] were, in that order, “potent activity” and “potent agonists”.
Consider `CC(C)(CC(O)(Cc1cc2ccncc2[nH]1)C(F)(F)F)c1cc(Br)cc2c1OCC2` (centres unmarked) [4-(5-Bromo-2,3-dihydrobenzofuran-7-yl)-1,1,1-trifluoro-4-methyl-2-(1H-pyrrolo[2,3-c]pyridin-2-ylmethyl)pentan-2-ol], for which, in experiment [1], the “activity in the GR binding assay” value was “potent activity”. In experiment [2], the “activity as agonists” value is given as “potent agonists”.
Regarding `COc1ccc(F)cc1C(C)(C)CC(O)(Cc1[nH]c2ccncc2c1C)C(F)(F)F` (centres unmarked) [1,1,1-Trifluoro-4-(5-fluoro-2-methoxyphenyl)-4-methyl-2-(3-methyl-1H pyrrolo[3,2-c]pyridin-2-ylmethyl)pentan-2-ol], the “activity in the GR binding assay” value in experiment [1] is given as “potent activity”. In addition, the “activity as agonists” value in experiment [2] is reported as “potent agonists”.
As for `CC(C)(CC(O)(Cc1cc2cnccc2[nH]1)C(F)(F)F)c1cc(Cl)cc2c1OCC2` (centres unmarked) [4-(5-Chloro-2,3-dihydrobenzofuran-7-yl)-1,1,1-trifluoro-4-methyl-2-(1H-pyrrolo[3,2-c]pyridin-2-ylmethyl)pentan-2-ol], the “activity in the GR binding assay” value in experiment [1] was “potent activity”. The “activity as agonists” value in experiment [2] is given as “potent agonists”.
For the compound `COc1ccc(F)cc1C(C)(C)CC(O)(Cc1cc2cnc(C)cc2[nH]1)C(F)(F)F` (centres unmarked) [1,1,1-Trifluoro-4-(5-fluoro-2-methoxyphenyl)-4-methyl-2-(6-methyl-1H-pyrrolo[3,2-c]pyridin-2-ylmethyl)pentan-2-ol], in experiment [1], the “activity in the GR binding assay” value is recorded as “potent activity”. The “activity as agonists” value in experiment [2] was “potent agonists”.
Turning to `CC(C)(CC(O)(Cc1ccnc2ccccc12)C(F)(F)F)c1cccc(-c2ccccc2)c1` (centres unmarked) [4-Biphenyl-3-yl-1,1,1-trifluoro-4-methyl-2-quinolin-4-ylmethylpentan-2-ol], the “activity in the GR binding assay” value in experiment [1] is recorded as “potent activity”. Besides, the “activity as agonists” value in experiment [2] is “potent agonists”.
Consider `COc1ccc(F)cc1C(C)(C)CC(O)(Cc1cc2c(C)nc(C)nc2[nH]1)C(F)(F)F` (centres unmarked) [2-(2,4-Dimethyl-7H-pyrrolo[2,3-d]pyrimidin-6-ylmethyl)-1,1,1-trifluoro-4-(5-fluoro-2-methoxyphenyl)-4-methylpentan-2-ol], for which, in experiment [1], the “activity in the GR binding assay” value was “potent activity”. In addition, the “activity as agonists” value in experiment [2] is “potent agonists”.
For `Cc1cc(C#N)cc2[nH]c(CC(O)(CC(C)(C)c3cc(Br)cc4c3OCC4)C(F)(F)F)cc12` (centres unmarked) [2-[4-(5-Bromo-2,3-dihydrobenzofuran-7-yl)-2-hydroxy-4-methyl-2-trifluoromethylpentyl]-4-methyl-1H-indole-6-carbonitrile], in experiment [1], the “activity in the GR binding assay” value was “potent activity”. For the same compound, in experiment [2], the “activity as agonists” value was “potent agonists”.
`COc1ccc(F)cc1C(C)(C)CC(O)(Cc1cc2ccc(C#N)cc2[nH]1)C(F)(F)F` (centres unmarked) [2-[4-(5-Fluoro-2-methoxyphenyl)-2-hydroxy-4-methyl-2-trifluoromethylpentyl]-1H-indole-6-carbonitrile]: the “activity in the GR binding assay” value in experiment [1] is reported as “potent activity”. Also, the “activity as agonists” value in experiment [2] was “potent agonists”.
Regarding `Cc1cc(C#N)cc2[nH]c(CC(O)(CC(C)(C)c3cccc4c3OCO4)C(F)(F)F)cc12` (centres unmarked) [2-(4-Benzo[1,3]dioxol-4-yl-2-hydroxy-4-methyl-2-trifluoromethylpentyl)-4-methyl-1H-indole-6-carbonitrile], the “activity in the GR binding assay” value in experiment [1] is on record as “potent activity”. Moreover, the “activity as agonists” value in experiment [2] was “potent agonists”.
Consider `Cc1ccc(F)cc1C(C)(C)CC(O)(Cc1cc2cc(Cl)ncc2[nH]1)C(F)(F)F` (centres unmarked) [2-(5-Chloro-1H-pyrrolo[2,3-c]pyridin-2-ylmethyl)-1,1,1-trifluoro-4-(5-fluoro-2-methylphenyl)-4-methylpentan-2-ol], for which the “activity in the GR binding assay” value in experiment [1] was “potent activity”. Moreover, the “activity as agonists” value in experiment [2] is “potent agonists”.
Take `CC(C)(CC(O)(Cc1cc2nc(C#N)ccc2[nH]1)C(F)(F)F)c1cc(Cl)cc2c1OCC2` (centres unmarked) [2-[4-(5-Chloro-2,3-dihydrobenzofuran-7-yl)-2-hydroxy-4-methyl-2-trifluoromethylpentyl]-1H-pyrrolo[3,2-b]pyridine-5-carbonitrile]: the “activity in the GR binding assay” value in experiment [1] is “potent activity”. In addition, in experiment [2], the “activity as agonists” value was “potent agonists”.
Turning to `Cc1cc(CC(O)(CC(C)(C)c2cc(F)ccc2C)C(F)(F)F)cc(C)n1` (centres unmarked) [2-(2,6-Dimethylpyridin-4-ylmethyl)-1,1,1-trifluoro-4-(5-fluoro-2-methylphenyl)-4-methylpentan-2-ol], the “activity in the GR binding assay” value in experiment [1] is listed as “potent activity”. The “activity as agonists” value in experiment [2] is “potent agonists”.
With `Cc1cc(CC(O)(CC(C)(C)c2cc(F)ccc2O)C(F)(F)F)c2ccccc2n1` (centres unmarked) [4-Fluoro-2-[4,4,4-trifluoro-3-hydroxy-1,1-dimethyl-3-(2-methylquinolin-4-ylmethyl)butyl]phenol], the “activity in the GR binding assay” value in experiment [1] was “potent activity”. Further, in experiment [2], the “activity as agonists” value is “potent agonists”.
Take `Cc1ccc(C(C)(C)CC(O)(Cc2ccnc3ccccc23)C(F)(F)F)cc1F` (centres unmarked) [1,1,1-Trifluoro-4-(3-fluoro-4-methylphenyl)-4-methyl-2-quinolin-4-ylmethylpentan-2-ol]: the “activity in the GR binding assay” value in experiment [1] is given as “potent activity”. In addition, in experiment [2], the “activity as agonists” value is “potent agonists”.
The like results for `Cc1c(CC(O)(CC(C)(C)c2cc(Cl)cc3c2OCC3)C(F)(F)F)[nH]c2cnccc12` (centres unmarked) [4-(5-Chloro-2,3-dihydrobenzofuran-7-yl)-1,1,1-trifluoro-4-methyl-2-(3-methyl-1H-pyrrolo[2,3-c]pyridin-2-ylmethyl)pentan-2-ol] were, in that order, “potent activity” and “potent agonists”.
As for `Cc1ccc(C(C)(C)CC(O)(Cc2cc3ccccc3[nH]2)C(F)(F)F)cc1F` (centres unmarked) [1,1,1-Trifluoro-4-(3-fluoro-4-methylphenyl)-2-(1H-indol-2-ylmethyl)-4-methylpentan-2-ol], the “activity in the GR binding assay” value in experiment [1] is “potent activity”. Moreover, the “activity as agonists” value in experiment [2] is given as “potent agonists”.
Take `Cc1cc(CC(O)(CC(C)(C)c2ccc(F)cc2)C(F)(F)F)cc(C)n1` (centres unmarked) [2-(2,6-Dimethylpyridin-4-ylmethyl)-1,1,1-trifluoro-4-(4-fluorophenyl)-4-methylpentan-2-ol]: the “activity in the GR binding assay” value in experiment [1] is listed as “potent activity”. For the same compound, the “activity as agonists” value in experiment [2] is on record as “potent agonists”.
As to `CC(C)(CC(O)(Cc1ccnc(F)c1)C(F)(F)F)c1cc(F)ccc1O` (centres unmarked) [4-Fluoro-2-[4,4,4-trifluoro-3-(2-fluoropyridin-4-ylmethyl)-3-hydroxy-1,1-dimethylbutyl]phenol], in experiment [1], the “activity in the GR binding assay” value is listed as “potent activity”. Besides, in experiment [2], the “activity as agonists” value is on record as “potent agonists”.
For the compound `COc1cc2cc(CC(O)(CC(C)(C)c3cc(F)ccc3C)C(F)(F)F)[nH]c2cn1` (centres unmarked) [1,1,1-Trifluoro-4-(5-fluoro-2-methylphenyl)-2-(5-methoxy-1H-pyrrolo[2,3-c]pyridin-2-ylmethyl)-4-methylpentan-2-ol], the “activity in the GR binding assay” value in experiment [1] is on record as “potent activity”. Further, the “activity as agonists” value in experiment [2] is recorded as “potent agonists”.
